Measured values as given in paper PMC8446577, “Novel cold-adapted raw-starch digesting α-amylases from Eisenia fetida: Gene cloning, expression, and characterization” (Biotechnology Reports, 2021).

Target: T1, rEf-Amy I (Eisenia fetida, UniProt A0A173N065)
T1 construct: gene alpha-amylase; mature enzyme without signal peptide, secreted from Pichia pastoris GS115 (pPICZalphaA, codon-optimised gene), HisTrap purified, 57 kDa by SDS-PAGE; precursor 510 residues; borders from printed domain limits E18-V510
T1 sequence (A0A173N065 18-510): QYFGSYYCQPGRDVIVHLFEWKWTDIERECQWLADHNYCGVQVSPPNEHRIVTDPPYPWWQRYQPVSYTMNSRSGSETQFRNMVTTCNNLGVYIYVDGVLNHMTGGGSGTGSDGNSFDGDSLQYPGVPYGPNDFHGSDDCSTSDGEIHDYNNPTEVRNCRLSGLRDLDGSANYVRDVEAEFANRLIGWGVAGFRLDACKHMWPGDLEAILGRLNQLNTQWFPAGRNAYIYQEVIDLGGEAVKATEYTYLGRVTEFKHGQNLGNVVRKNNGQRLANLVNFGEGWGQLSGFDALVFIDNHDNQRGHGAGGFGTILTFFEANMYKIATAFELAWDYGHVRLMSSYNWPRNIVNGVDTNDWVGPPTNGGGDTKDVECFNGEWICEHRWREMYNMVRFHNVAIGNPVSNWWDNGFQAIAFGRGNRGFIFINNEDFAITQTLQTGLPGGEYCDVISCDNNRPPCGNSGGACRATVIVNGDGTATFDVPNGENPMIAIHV
Test: HPLC (RI detection) of hydrolysis products
Format: biochemical
Settings: 5 mM substrate, 50 mM sodium acetate pH 5.5, 37 °C

| SMILES | HPLC (RI detection) of hydrolysis products |
| --- | --- |
| OC[C@H]1O[C@H](O[C@H]2[C@H](O)[C@@H](O)[C@@H](O[C@H]3[C@H](O)[C@@H](O)[C@@H](O[C@H]4[C@H](O)[C@@H](O)C(O)O[C@@H]4CO)O[C@@H]3CO)O[C@@H]2CO)[C@H](O)[C@@H](O)[C@@H]1O (some centres unmarked) [maltotetraose] | from Mal4 was Mal (Fig. 5B) |
| OC[C@H]1O[C@H](O[C@H]2[C@H](O)[C@@H](O)[C@@H](O[C@H]3[C@H](O)[C@@H](O)[C@@H](O[C@H]4[C@H](O)[C@@H](O)[C@@H](O[C@H]5[C@H](O)[C@@H](O)C(O)O[C@@H]5CO)O[C@@H]4CO)O[C@@H]3CO)O[C@@H]2CO)[C@H](O)[C@@H](O)[C@@H]1O (some centres unmarked) [maltopentaose] | In the case of Ef-Amy I, the major hydrolysis products from Mal5 were Mal and Mal3 |
